{
  "source": "patent US9034922B2",
  "about": "“Composition for maintaining function of platelets” (THE UNIVERSITY OF TOKYO, priority 2010, dated 2015)",
  "key": {"[1]": {"test_system": "iPS cell-derived platelets (ADAM17-mediated GPIbα shedding)", "assay": "Function-maintaining effect on iPS cell-derived platelets in culture system (flow cytometry CD41/CD42b, platelet count)", "type": "cell-based, human", "conditions": "Test Example 7, 8 days", "text": "As human iPS cells (hiPS cells), an iPS cell line (TkDA3-4) established at the University of Tokyo by introducing Oct4, Klf4, Sox2, and c-Myc into human-derived skin cells was also used). […] The cells were subcultured for every 3 days, and those keeping an undifferentiated state were used.\nThereby, megakaryocytes/platelets were induced."}, "[2]": {"test_system": "human peripheral blood platelets adhering to VWF", "assay": "Adhesion ability of platelets to VWF-coated flow chamber", "type": "cell-based", "conditions": "Test Example 15; platelets incubated with 15 μM S-45457 and 100 μM CCCP, 37° C., 24 hours; wall shear rate 1500 S^−1", "description": "Then, the supernatant was removed. The precipitate thus obtained was suspended in a Tyrode HEPES Ca(−) buffer, added with 100 μM CCCP and simultaneously added with one of either DMSO or 15 μM S-45457 and followed by incubation at 37° C. for 24 hours. Note that, in this experiment, one obtained by adding CCCP and DMSO and the subsequent incubation was prepared as a negative control, while one obtained without the addition or the incubation treatments was prepared as a positive control.\nFurther, after the incubation (in the case of the positive control, without incubation), the suspension was added with TMRE (tetramethylrhodamine ethyl ester perchlorate) having been diluted to 1/2000 and incubated at room temperature for 15 minutes to label the platelets with fluorescence. […]\nNext, each of fluorescence-labelled platelet samples was added to and mixed with a whole blood sample of collected human peripheral blood anticoagulated with argatroban (thrombin inhibitor) so that the number of platelets of the fluorescence-labelled platelet sample was 10% of the whole blood platelets. […] The fluorescence-labelled platelets which formed a thrombus were visualized using an inverted stage epifluorescence video microscope system (DM IRB, manufactured by Leica). […] Further, a percentage of surface area covered by platelets was calculated using Image-J software (NIH Image). […]"}},
  "data": [
    {"molecule": "CC#CCOc1ccc(S(=O)(=O)CC(c2ccc(CNS(C)(=O)=O)cc2)N(O)C=O)cc1", "note": "(stereo not drawn) [Compound I-4, N-{4-[2-(4-But-2-ynyloxybenzenesulfonyl)-1-(formylhydroxyamino)ethyl]benzyl}methanesulfonamide]", "values": [
      {"measurement": "toxicity to cells (total number of platelets)", "setting": "[1]; iPS cells and differentiated cells, 1.5 to 50 μM", "value": "low toxicity"},
      {"measurement": "concentration dependency of inhibition of GPIbα shedding", "setting": "[1]; iPS cells, S-45457 1.5 to 50 μM", "value": "inhibit ADAM17-mediated GPIbα shedding in a manner dependent on the added concentration"},
      {"measurement": "percentage of surface area covered by platelets", "setting": "[2]", "value": "high percentage of surface area covered by the platelets in comparison with the result of the negative control"}
    ]}
  ]
}
